Experimental data reported in ChEMBL document CHEMBL4811240, “Discovery of N-substituted sulfamoylbenzamide derivatives as novel inhibitors of STAT3 signaling pathway based on Niclosamide” (Eur J Med Chem, 2021).
Calls of active or inactive are those of the source. The calls are words filed in the database; no cut-off is given here.

How the values were obtained:
MDA-MB-231 [1] = assay: Inhibition of human MDA-MB-231 cells migration after 24 hrs by crystal violet staining based transwell migration assay; type: functional, cell-based; conditions: dose 0.1-1 µM
[2] = biological target: Mitogen-activated protein kinase 3 (Homo sapiens) (UniProt P27361); assay: Inhibition of N-terminal GST-tagged full length ERK1 (1 to 379 residues) (unknown origin) expressed in Escherichia coli at 10 uM preincubated for 10 mins followed by peptide substrate addition relative to control
[3] = biological target: Serine/threonine-protein kinase PAK 1 (Homo sapiens) (UniProt Q13153); assay: Inhibition of full length N-terminal GST-tagged PAK1 (1 to 545 residues) (unknown origin) expressed in Sf21 at 10 uM preincubated for 10 mins followed by peptide substrate addition relative to control
Chain of Serine/threonine-protein kinase PAK 1 (Homo sapiens) (Q13153 whole entry, looked up, the tested form may be a part): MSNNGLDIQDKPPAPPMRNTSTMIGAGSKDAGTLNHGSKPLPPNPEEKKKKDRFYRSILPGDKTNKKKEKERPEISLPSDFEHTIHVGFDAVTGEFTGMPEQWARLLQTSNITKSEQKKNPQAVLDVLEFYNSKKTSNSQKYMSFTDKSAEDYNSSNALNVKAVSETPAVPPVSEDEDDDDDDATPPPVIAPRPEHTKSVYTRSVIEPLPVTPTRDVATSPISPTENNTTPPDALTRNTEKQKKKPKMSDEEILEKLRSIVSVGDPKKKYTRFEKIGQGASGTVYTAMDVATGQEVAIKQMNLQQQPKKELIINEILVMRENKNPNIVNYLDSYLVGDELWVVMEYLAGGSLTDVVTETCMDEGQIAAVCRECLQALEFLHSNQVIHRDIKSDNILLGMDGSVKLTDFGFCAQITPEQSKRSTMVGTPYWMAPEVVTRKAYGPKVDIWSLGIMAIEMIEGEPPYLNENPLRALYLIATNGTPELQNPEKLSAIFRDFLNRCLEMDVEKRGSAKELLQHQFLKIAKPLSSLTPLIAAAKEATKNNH

[4] = biological target: Fibroblast growth factor receptor 3 (Homo sapiens) (UniProt P22607); assay: Inhibition of FGFR3 (436 to 806 residues) (unknown origin) expressed in Sf21 cells at 10 uM preincubated for 10 mins followed by peptide substrate addition relative to control
Chain of Fibroblast growth factor receptor 3 (Homo sapiens) (P22607 23-806 limits assumed): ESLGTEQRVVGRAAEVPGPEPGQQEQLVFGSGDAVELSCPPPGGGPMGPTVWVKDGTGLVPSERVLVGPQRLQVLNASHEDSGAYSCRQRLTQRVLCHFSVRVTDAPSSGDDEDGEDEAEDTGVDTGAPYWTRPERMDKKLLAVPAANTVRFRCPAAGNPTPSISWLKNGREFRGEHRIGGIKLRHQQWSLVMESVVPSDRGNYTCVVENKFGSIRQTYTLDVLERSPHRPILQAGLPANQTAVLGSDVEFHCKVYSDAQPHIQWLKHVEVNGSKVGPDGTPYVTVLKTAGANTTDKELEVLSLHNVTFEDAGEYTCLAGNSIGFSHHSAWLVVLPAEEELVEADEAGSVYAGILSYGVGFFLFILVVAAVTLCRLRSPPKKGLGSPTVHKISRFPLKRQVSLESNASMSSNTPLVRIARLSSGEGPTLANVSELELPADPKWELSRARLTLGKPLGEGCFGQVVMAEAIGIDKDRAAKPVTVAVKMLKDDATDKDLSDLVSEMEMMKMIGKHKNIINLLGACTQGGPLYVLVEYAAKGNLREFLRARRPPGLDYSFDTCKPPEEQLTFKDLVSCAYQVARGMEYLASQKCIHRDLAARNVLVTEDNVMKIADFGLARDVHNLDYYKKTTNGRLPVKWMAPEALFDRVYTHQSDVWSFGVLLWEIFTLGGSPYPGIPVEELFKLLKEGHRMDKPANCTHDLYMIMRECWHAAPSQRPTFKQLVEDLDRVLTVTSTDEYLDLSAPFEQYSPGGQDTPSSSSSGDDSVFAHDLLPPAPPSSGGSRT

MDA-MB-231 [5] = assay: Induction of apoptosis in human MDA-MB-231 cells assessed as apoptotic cells at 5 uM measured after 24 hrs by annexinV-FITC/propidium iodide staining based flow cytometry analysis (reference value: 2.49%); type: functional
MDA-MB-231 [6] = assay: Antiproliferative activity against human MDA-MB-231 cells assessed as inhibition of cell viability at 10 uM after 48 hrs by MTT assay relative to control; type: functional
[7] = biological target: Receptor-type tyrosine-protein kinase FLT3 (Homo sapiens) (UniProt P36888); assay: Inhibition of recombinant human His-tagged FLT3 expressed in baculovirus expression system at 10 uM preincubated for 10 mins followed by peptide substrate addition relative to control
Chain of Receptor-type tyrosine-protein kinase FLT3 (Homo sapiens) (P36888 whole entry, the tested form may be a part): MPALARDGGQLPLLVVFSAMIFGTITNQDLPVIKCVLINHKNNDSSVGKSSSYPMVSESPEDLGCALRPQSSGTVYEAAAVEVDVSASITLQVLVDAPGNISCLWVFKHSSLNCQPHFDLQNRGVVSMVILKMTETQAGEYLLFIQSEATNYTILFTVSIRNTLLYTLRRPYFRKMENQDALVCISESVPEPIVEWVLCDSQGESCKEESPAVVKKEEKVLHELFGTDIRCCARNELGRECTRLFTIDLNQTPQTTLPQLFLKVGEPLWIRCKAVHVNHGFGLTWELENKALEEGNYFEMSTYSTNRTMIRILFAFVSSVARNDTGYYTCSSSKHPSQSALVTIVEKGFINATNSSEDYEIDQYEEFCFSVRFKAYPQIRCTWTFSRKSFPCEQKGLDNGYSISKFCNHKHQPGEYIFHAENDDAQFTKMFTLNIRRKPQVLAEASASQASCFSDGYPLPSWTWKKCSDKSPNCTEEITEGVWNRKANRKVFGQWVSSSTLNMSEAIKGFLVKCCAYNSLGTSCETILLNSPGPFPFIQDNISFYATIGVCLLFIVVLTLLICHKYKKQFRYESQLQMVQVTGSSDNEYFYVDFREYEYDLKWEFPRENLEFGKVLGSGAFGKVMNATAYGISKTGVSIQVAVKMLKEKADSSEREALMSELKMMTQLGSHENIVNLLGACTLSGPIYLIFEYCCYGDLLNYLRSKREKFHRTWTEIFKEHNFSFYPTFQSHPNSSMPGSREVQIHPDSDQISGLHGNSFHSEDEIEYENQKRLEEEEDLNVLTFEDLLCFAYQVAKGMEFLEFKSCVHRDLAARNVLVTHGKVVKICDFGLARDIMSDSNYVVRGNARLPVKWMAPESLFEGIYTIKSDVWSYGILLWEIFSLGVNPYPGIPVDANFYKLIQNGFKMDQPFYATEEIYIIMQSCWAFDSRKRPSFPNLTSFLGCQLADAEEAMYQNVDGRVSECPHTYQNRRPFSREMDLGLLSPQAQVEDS

[8] = biological target: Fibroblast growth factor receptor 2 (Homo sapiens) (UniProt P21802); assay: Inhibition of N-terminal GST-tagged FGFR2 (399 to 821 residues) (unknown origin) expressed in Sf21 cells at 10 uM preincubated for 10 mins followed by peptide substrate addition relative to control
Chain of Fibroblast growth factor receptor 2 (Homo sapiens) (P21802 22-821 limits assumed): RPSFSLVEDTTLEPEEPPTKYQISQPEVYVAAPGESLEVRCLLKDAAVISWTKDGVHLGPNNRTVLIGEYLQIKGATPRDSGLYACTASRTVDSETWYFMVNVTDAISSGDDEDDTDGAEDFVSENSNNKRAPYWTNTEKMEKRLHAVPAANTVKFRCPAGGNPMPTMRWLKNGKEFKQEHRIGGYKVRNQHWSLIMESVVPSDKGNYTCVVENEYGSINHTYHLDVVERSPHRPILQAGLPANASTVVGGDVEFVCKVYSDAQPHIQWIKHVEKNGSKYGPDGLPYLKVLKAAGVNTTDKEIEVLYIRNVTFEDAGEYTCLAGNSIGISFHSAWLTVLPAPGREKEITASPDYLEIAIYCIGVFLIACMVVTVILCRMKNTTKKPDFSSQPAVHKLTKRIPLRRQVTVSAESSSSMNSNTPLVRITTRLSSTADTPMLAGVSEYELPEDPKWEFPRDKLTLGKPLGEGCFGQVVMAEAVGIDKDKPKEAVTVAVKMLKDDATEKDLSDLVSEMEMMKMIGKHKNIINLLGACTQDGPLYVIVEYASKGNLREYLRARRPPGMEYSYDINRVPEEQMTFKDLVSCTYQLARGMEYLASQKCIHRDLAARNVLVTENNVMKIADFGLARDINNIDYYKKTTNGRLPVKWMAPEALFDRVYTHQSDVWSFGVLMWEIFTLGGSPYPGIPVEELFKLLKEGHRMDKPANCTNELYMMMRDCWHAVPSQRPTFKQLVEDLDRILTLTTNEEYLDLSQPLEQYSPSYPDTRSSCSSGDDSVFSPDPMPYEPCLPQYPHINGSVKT

MDA-MB-231 [9] = assay: Antitumor activity against human MDA-MB-231 cells xenografted in BALB/c nude mouse assessed as the inhibition of tumor growth at 30 mg/kg, ig administered every two days; type: functional, organism-based
[10] = biological target: Tyrosine-protein kinase JAK1 (Homo sapiens) (UniProt P23458); assay: Inhibition of JAK1 (850 to 1154 residues) (unknown origin) expressed in Sf21 cells at 10 uM preincubated for 10 mins followed by peptide substrate addition relative to control
[11] = biological target: Tyrosine-protein kinase JAK3 (Homo sapiens) (UniProt P52333); assay: Inhibition of N-terminal His-tagged JAK3 (795 to 1124 residues) (unknown origin) expressed in Sf21 cells at 10 uM preincubated for 10 mins followed by peptide substrate addition relative to control
Chain of Tyrosine-protein kinase JAK3 (Homo sapiens) (P52333 whole entry, the tested form may be a part): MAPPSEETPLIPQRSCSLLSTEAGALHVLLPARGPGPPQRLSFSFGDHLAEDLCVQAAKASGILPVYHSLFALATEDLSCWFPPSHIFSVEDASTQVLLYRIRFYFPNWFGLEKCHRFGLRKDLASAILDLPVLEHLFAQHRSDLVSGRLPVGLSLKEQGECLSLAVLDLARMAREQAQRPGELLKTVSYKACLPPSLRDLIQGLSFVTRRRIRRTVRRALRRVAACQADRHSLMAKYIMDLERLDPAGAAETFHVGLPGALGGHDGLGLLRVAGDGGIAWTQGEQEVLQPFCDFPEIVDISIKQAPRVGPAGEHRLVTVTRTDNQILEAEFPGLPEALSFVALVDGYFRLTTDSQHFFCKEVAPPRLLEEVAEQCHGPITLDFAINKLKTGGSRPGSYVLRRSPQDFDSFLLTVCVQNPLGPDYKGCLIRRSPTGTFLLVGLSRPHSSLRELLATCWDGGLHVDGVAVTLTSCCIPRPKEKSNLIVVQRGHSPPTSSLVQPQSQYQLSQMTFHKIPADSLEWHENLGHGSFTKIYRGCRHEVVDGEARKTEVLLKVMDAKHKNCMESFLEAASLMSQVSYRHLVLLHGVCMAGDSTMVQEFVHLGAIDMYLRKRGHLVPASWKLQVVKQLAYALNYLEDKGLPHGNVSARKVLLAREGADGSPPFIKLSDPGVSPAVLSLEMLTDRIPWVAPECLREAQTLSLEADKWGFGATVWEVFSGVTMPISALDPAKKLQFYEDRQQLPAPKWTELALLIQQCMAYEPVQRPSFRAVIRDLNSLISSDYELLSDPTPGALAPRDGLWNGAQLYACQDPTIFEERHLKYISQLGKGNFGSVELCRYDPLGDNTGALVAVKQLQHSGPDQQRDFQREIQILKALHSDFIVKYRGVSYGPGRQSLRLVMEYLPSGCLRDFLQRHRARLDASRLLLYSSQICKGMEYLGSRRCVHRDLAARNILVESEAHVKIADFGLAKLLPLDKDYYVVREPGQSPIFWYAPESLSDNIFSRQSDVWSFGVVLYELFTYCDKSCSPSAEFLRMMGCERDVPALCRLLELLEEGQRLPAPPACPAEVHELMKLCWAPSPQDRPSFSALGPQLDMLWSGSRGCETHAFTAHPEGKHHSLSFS

[12] = biological target: Cyclin-dependent kinase 7 (Homo sapiens) (UniProt P50613); assay: Inhibition of CDK7 (unknown origin) at 10 uM preincubated for 10 mins followed by peptide substrate addition relative to control
[13] = biological target: Wee1-like protein kinase (Homo sapiens) (UniProt P30291); assay: Inhibition of Wee1 (215 to 646 residues) (unknown origin) expressed in Sf21 at 10 uM preincubated for 10 mins followed by peptide substrate addition relative to control
Chain of Wee1-like protein kinase (Homo sapiens) (P30291 whole entry, looked up, the tested form may be a part): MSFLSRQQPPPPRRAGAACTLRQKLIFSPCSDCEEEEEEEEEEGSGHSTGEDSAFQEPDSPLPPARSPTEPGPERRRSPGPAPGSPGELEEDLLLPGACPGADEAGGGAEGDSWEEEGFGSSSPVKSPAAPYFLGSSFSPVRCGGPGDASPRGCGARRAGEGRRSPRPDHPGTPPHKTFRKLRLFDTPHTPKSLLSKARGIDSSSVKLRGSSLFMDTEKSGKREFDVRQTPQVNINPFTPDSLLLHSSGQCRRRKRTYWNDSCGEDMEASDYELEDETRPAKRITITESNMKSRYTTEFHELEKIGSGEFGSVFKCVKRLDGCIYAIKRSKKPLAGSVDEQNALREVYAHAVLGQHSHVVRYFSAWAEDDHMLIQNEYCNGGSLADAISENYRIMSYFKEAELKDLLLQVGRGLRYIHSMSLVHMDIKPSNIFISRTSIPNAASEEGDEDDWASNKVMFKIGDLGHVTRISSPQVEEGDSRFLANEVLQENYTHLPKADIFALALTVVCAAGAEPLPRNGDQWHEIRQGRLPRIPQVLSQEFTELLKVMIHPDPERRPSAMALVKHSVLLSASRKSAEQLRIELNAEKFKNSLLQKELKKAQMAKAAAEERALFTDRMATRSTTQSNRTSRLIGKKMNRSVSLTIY

[14] = biological target: ALK tyrosine kinase receptor (Homo sapiens) (UniProt Q9UM73); assay: Inhibition of ALK (1058 to 1620 residues) (unknown origin) expressed in Sf21 cells at 10 uM preincubated for 10 mins followed by peptide substrate addition relative to control
MDA-MB-231 [15] = assay: Effect on total STAT3 expression in human MDA-MB-231 cells at 1 to 10 uM incubated for 2 hrs by Western blotting analysis; type: functional, cell-based; conditions: dose 1-10 µM
[16] = biological target: Mitogen-activated protein kinase 1 (Homo sapiens) (UniProt P28482); assay: Inhibition of N-terminal GST-tagged full length ERK2 (1 to 360 residues) (unknown origin) expressed in Escherichia coli at 10 uM preincubated for 10 mins followed by peptide substrate addition relative to control
MDA-MB-231 [17] = assay: Inhibition of human MDA-MB-231 cells migration a 1000 nM after 24 hrs by crystal violet staining based transwell migration assay; type: functional, cell-based
[18] = biological target: Cyclin-dependent kinase 1/cyclin B1 (Homo sapiens) (UniProt P06493+P14635); assay: Inhibition of N-terminal GST-tagged full length CDK1/cyclin B1 (unknown origin) expressed in Sf21 cells at 10 uM preincubated for 10 mins followed by peptide substrate addition relative to control
MDA-MB-231 [19] = assay: Induction of apoptosis in human MDA-MB-231 cells assessed as increase in cleaved PARP expression at 1 to 10 uM incubated for 24 hrs by Western blot analysis; type: functional, cell-based; conditions: dose 1-10 µM
HCT-116 = assay: Antiproliferative activity against human HCT116 cells assessed as inhibition of cell viability at 10 uM after 48 hrs by MTT assay relative to control; type: functional
[20] = biological target: Inhibitor of nuclear factor kappa-B kinase subunit beta (Homo sapiens) (UniProt O14920); assay: Inhibition of IKKbeta (1 to 662 residues) (unknown origin) expressed in Sf21 cells at 10 uM preincubated for 10 mins followed by peptide substrate addition relative to control
[21] = biological target: Fibroblast growth factor receptor 4 (Homo sapiens) (UniProt P22455); assay: Inhibition of FGFR4 (460 to 802 residues) (unknown origin) expressed in Sf21 cells at 10 uM preincubated for 10 mins followed by peptide substrate addition relative to control
[22] = biological target: Vascular endothelial growth factor receptor 1 (Homo sapiens) (UniProt P17948); assay: Inhibition of recombinant human GST-tagged FLT1 (781 to 1338 residues) expressed in baculovirus expression system at 10 uM preincubated for 10 mins followed by peptide substrate addition relative to control
MDA-MB-231 [23] = assay: Induction of apoptosis in human MDA-MB-231 cells assessed as apoptotic cells at 10 uM measured after 24 hrs by annexinV-FITC/propidium iodide staining based flow cytometry analysis (reference value: 2.49%); type: functional
MDA-MB-231 [24] = assay: Induction of apoptosis in human MDA-MB-231 cells assessed as apoptotic cells at 1 uM measured after 24 hrs by annexinV-FITC/propidium iodide staining based flow cytometry analysis (reference value: 2.49%); type: functional
[25] = biological target: Hepatocyte growth factor receptor (Homo sapiens) (UniProt P08581); assay: Inhibition of MET (956 to 1390 residues) (unknown origin) expressed in Sf21 cells at 10 uM preincubated for 10 mins followed by peptide substrate addition relative to control
[26] = biological target: Dual specificity mitogen-activated protein kinase kinase 1 (Homo sapiens) (UniProt Q02750); assay: Inhibition of N-terminal GST-tagged full length MEK1 (1 to 393 residues) (unknown origin) expressed in Sf21 cells at 10 uM preincubated for 10 mins followed by peptide substrate addition relative to control
[27] = biological target: Serine/threonine-protein kinase PLK1 (Homo sapiens) (UniProt P53350); assay: Inhibition of full length PLK1 (1 to 603 residues) (unknown origin) expressed in Sf21 at 10 uM preincubated for 10 mins followed by peptide substrate addition relative to control

- inhibition [2]: 1.72%
- inhibition [3]: 9.32%
- inhibition [4]: 1.25%
- inhibition [7]: 10.2%
- inhibition [8]: 5.28%
- inhibition [10]: 2.99%
- inhibition [11]: 4.24%
- inhibition [12]: 6.45%
- inhibition [13]: 4.76%
- inhibition [14]: 5.19%
- inhibition [16]: 0.78%
- inhibition [18]: -2.27%
- inhibition [20]: 2.87%
- inhibition [21]: -1.53%
- inhibition [22]: 4.33%
- inhibition [25]: 0.13%
- inhibition [26]: 1.56%
- inhibition [27]: 5.19%
Compound: CC(C)(C)OC(=O)c1ccc(NC(=O)c2ccc(Cl)c(S(N)(=O)=O)c2)cc1
- inhibition (MDA-MB-231 [1]): Dose-Dependent Effect
- Activity (MDA-MB-231 [5]): 23.14%
- inhibition at 10 µM (MDA-MB-231 [6]): 93%
- Activity (MDA-MB-231 [9]): Active
- inhibition (MDA-MB-231 [15]): Active
- inhibition (MDA-MB-231 [17]): Active
- Activity (MDA-MB-231 [19]): Active
- inhibition at 10 µM (HCT-116): 85.3%
- Activity (MDA-MB-231 [23]): 25.63%
- Activity (MDA-MB-231 [24]): 6.75%
